The structures appear in SMILES notation.

A short description of this data set: xn = mol fraction of the nth substance listed. To be noted: Liquid, Taylor dispersion method, x1 = 0.

Regarding `COc1ccccc1Br` [1-bromo-2-methoxybenzene] + O=C=O, the binary diffusion coefficient was determined as 9.46e-09 m2/s (313.16 K, 15000 kPa); 8.66e-09 m2/s (313.16 K, 20000 kPa); 7.92e-09 m2/s (313.16 K, 25000 kPa); 7.48e-09 m2/s (313.16 K, 30000 kPa); 7.15e-09 m2/s (313.16 K, 35000 kPa); 1.15e-08 m2/s (323.16 K, 15000 kPa). In addition, the binary diffusion coefficient (323.16 K, 20000 kPa) is 1.01e-08 m2/s; the binary diffusion coefficient (323.16 K, 25000 kPa) came to 9.08e-09 m2/s; the binary diffusion coefficient (323.16 K, 30000 kPa) came to 8.52e-09 m2/s; the binary diffusion coefficient (323.16 K, 35000 kPa) came to 7.98e-09 m2/s; the binary diffusion coefficient (333.16 K, 15000 kPa) is 1.28e-08 m2/s; the binary diffusion coefficient (333.16 K, 20000 kPa) turned out to be 1.19e-08 m2/s. The binary diffusion coefficient (333.16 K, 25000 kPa) is 1.06e-08 m2/s; the binary diffusion coefficient (333.16 K, 30000 kPa) was determined as 9.45e-09 m2/s; the binary diffusion coefficient (333.16 K, 35000 kPa) was 8.98e-09 m2/s.

Turning to `C=Cc1cccc(C=C)c1` [1,3-diethenylbenzene] + O=C=O, the binary diffusion coefficient worked out at 1.03e-08 m2/s (313.16 K, 15000 kPa); 9.44e-09 m2/s (313.16 K, 20000 kPa); 8.69e-09 m2/s (313.16 K, 25000 kPa); 8.07e-09 m2/s (313.16 K, 30000 kPa); 7.69e-09 m2/s (313.16 K, 35000 kPa); 1.28e-08 m2/s (323.16 K, 15000 kPa). The binary diffusion coefficient was determined as 1.06e-08 m2/s (323.16 K, 20000 kPa); 9.71e-09 m2/s (323.16 K, 25000 kPa); 8.94e-09 m2/s (323.16 K, 30000 kPa); 8.54e-09 m2/s (323.16 K, 35000 kPa); 1.51e-08 m2/s (333.16 K, 15000 kPa); 1.21e-08 m2/s (333.16 K, 20000 kPa). Besides, the binary diffusion coefficient (333.16 K, 25000 kPa) was found to be 1.11e-08 m2/s; the binary diffusion coefficient (333.16 K, 30000 kPa) was found to be 9.95e-09 m2/s; the binary diffusion coefficient (333.16 K, 35000 kPa) was found to be 9.47e-09 m2/s.

As to `C=CCc1ccccc1` [2-propenylbenzene] + O=C=O, the binary diffusion coefficient (313.16 K, 15000 kPa) turned out to be 1.03e-08 m2/s; the binary diffusion coefficient (313.16 K, 20000 kPa) is 9.11e-09 m2/s; the binary diffusion coefficient (313.16 K, 25000 kPa) was determined as 8.93e-09 m2/s; the binary diffusion coefficient (313.16 K, 30000 kPa) is 8.29e-09 m2/s; the binary diffusion coefficient (313.16 K, 35000 kPa) came out at 7.67e-09 m2/s; the binary diffusion coefficient (323.16 K, 15000 kPa) came to 1.23e-08 m2/s. The binary diffusion coefficient (323.16 K, 20000 kPa) is 1.12e-08 m2/s; the binary diffusion coefficient (323.16 K, 25000 kPa) came to 1e-08 m2/s; the binary diffusion coefficient (323.16 K, 30000 kPa) came to 9.35e-09 m2/s; the binary diffusion coefficient (323.16 K, 35000 kPa) is 9.01e-09 m2/s; the binary diffusion coefficient (333.16 K, 15000 kPa) stood at 1.41e-08 m2/s; the binary diffusion coefficient (333.16 K, 20000 kPa) came to 1.22e-08 m2/s. The binary diffusion coefficient by setting is: (333.16 K, 25000 kPa) 1.15e-08 m2/s; (333.16 K, 30000 kPa) 1.05e-08 m2/s; (333.16 K, 35000 kPa) 9.87e-09 m2/s.

`COc1ccccc1F` [2-fluoroanisole] + O=C=O: the binary diffusion coefficient by setting is: (313.16 K, 15000 kPa) 1.02e-08 m2/s; (313.16 K, 20000 kPa) 9.27e-09 m2/s; (313.16 K, 25000 kPa) 8.69e-09 m2/s; (313.16 K, 30000 kPa) 8.01e-09 m2/s; (313.16 K, 35000 kPa) 7.68e-09 m2/s; (323.16 K, 15000 kPa) 1.25e-08 m2/s. Besides, the binary diffusion coefficient (323.16 K, 20000 kPa) is 1.05e-08 m2/s; the binary diffusion coefficient (323.16 K, 25000 kPa) was determined as 9.89e-09 m2/s; the binary diffusion coefficient (323.16 K, 30000 kPa) turned out to be 9.14e-09 m2/s; the binary diffusion coefficient (323.16 K, 35000 kPa) amounted to 8.65e-09 m2/s; the binary diffusion coefficient (333.16 K, 15000 kPa) is 1.43e-08 m2/s; the binary diffusion coefficient (333.16 K, 20000 kPa) was 1.23e-08 m2/s. Besides, the binary diffusion coefficient runs as follows: (333.16 K, 25000 kPa) 1.1e-08 m2/s; (333.16 K, 30000 kPa) 1.03e-08 m2/s; (333.16 K, 35000 kPa) 9.67e-09 m2/s.
